Measurements from patent publication US10857155B2, “Compounds targeting proteins, compositions, methods, and uses thereof” (BioTheryX, Inc., priority 2017, dated 2020).

Columns and labels:
Format in all cases: cell-based
IL-1β = experiment: IL-1 beta in LPS-induced PBMCs / CD14+ monocytes, Meso Scale assay
Method: (§1) FIG. 2 represents the activity against IL-1-beta in CD14 monocytes, plated in 96 well plates and pretreated with Compounds 1, 2, or 3, or pomalidomide, for 1 h and then induced with 100 ng/mL LPS for 18-24 h. Cytokines were measured according to MesoScale protocol. Negative control wells were treated with DMSO. Compound activity was measured as a percentage of LPS-induced activity.
(§2) Either frozen primary blood mononuclear cells (PBMCs) or frozen CD14+ mobilized peripheral blood monocytes were purchased from AllCells (PB003F, Normal Peripheral Blood MNC (Alameda, Calif.)). Cells were quick thawed, washed 1-time with RPMI-1640 (10% FBS/1% Pen-Strep) and plated in 96 well plates at 200,000 cells per well. Cells were pretreated with DMSO only, pomalidomide or the indicated compounds for 1 h and then induced with 100 ng/mL lipopolysaccharide (LPS) for 18-24 h. The supernatant was analyzed for IL-1 beta, IL-6, and TNF-alpha, using Meso Scale assay according to manufacturer's protocol. The negative control wells were treated with DMSO.
(§3) Compound activity is measured as fold difference from the DMSO control. Compounds 1, 2, and 3 each reduced expression of IL-1-b in LPS-stimulated PBMCs by over 80% at 1 uM, relative to a just under 80% reduction with pomalidomide at 10 μM (FIG. 2).

IL-6 = IL-6 in LPS-induced PBMCs / CD14+ monocytes, Meso Scale assay
Method: as §1, with “FIG. 3” for “FIG. 2”, “against IL-6” for “against IL-1-beta”, “in CD14,” for “in CD14”, “DMSO. Cells were treated with compound (at the indicated concentrations) or 10 μM pomalidomide.” for “DMSO.”
as §2, §3

H1048 cells = experiment: Cell viability assay (CellTiter-Glo), H1048 cells; details: Homo sapiens, NCI-H1048, 72 h, 3 days; for viability at 1 µM: H1048, 1 μM; for viability at 10 µM: H1048, 10 μM
Method: (§4) Molm-13 cells were cultivated in RPMI-1640 (10% FBS/1% pen-strep) and were plated in white walled 96-well plates at 20,000 cells/well. H1048 cells were cultured in DMEM:F12 media supplemented with 5% fetal bovine serum, insulin, transferrin, sodium selenite, hydrocortisone, estradiol, penicillin and streptomycin, and were plated in white walled 96-well plates at 20,000 cells/well.
(§5) Cells were treated with compound at the indicated concentration or DMSO (control) and the cultures were incubated for 3 days at 37° C. and 5% CO2. Following the incubation period, 100 μL of CellTiterGlow (CTG) reagent (CellTiter-Glo® Luminescent Cell Viability Assay, Promega (Madison, Wis.)) was added to each well. Following a 10 min incubation with shaking, luminescence was measured using a Victor Wallac Luminometer.

TNF-α = experiment: TNF-alpha in LPS-induced PBMCs / CD14+ monocytes, Meso Scale assay
Method: as §1, with “FIG. 4” for “FIG. 2”, “against TNF-alpha” for “against IL-1-beta”, “in CD14,” for “in CD14”, “protocol. The negative” for “protocol. Negative”, “DMSO. Cells were treated with compound (at the indicated concentrations) or 10 μM pomalidomide.” for “DMSO.”
as §2, §3

Molm-13 cells = experiment: Cell viability assay (CellTiter-Glo), Molm-13 cells; details: for viability at 10 µM: MOLM-13, 10 μM; for viability at 0.5 µM: MOLM-13, 0.5 μM; for IC50: approximate
Method: FIG. 5 represents antiproliferative activity in Molm-13 cells. The cells were incubated with Compound 1, 2, or 3 (at the indicated concentration), DMSO, or pomalidomide. Compound activity was measured based on the signal from remaining viable cells.
as §4, §5

IL-2 = IL-2 in PBMCs on anti-human CD3 (OKT3) coated plates, Mesoscale analysis; details: PBMC, 24 h, relative to DMSO control, read-out: Fold Change IL-2
Method: For the IL-2 analysis, 96 well plates were precoated with 1 μg/mL anti-human CD3 antibody (OKT3, eBioscience Inc., San Diego, Calif.). After washing with PBS, compounds were added (50 μL/well) followed by PBMCs diluted at 3-4 million cells/mL (150 μL/well). Plates were incubated for 24 h and the supernatants collected for Mesoscale IL-2 analysis.
as §3

GSPT1 = target: T1, GSPT1 (Homo sapiens, UniProt P15170); experiment: Western blot analysis of GSPT1 protein levels in Jurkat cells; details: DMSO = 100.00; for GSPT1 protein level (% of DMSO control) at 0.1 µM: 100 nM compound; for GSPT1 protein level (% of DMSO control) at 1 µM: 1 uM compound
T1 construct: Whole cell extract was prepared with RIPA buffer according to manufacturer's protocol; endogenous in cells; host or cells: Jurkat cells
T1 sequence (P15170 whole entry): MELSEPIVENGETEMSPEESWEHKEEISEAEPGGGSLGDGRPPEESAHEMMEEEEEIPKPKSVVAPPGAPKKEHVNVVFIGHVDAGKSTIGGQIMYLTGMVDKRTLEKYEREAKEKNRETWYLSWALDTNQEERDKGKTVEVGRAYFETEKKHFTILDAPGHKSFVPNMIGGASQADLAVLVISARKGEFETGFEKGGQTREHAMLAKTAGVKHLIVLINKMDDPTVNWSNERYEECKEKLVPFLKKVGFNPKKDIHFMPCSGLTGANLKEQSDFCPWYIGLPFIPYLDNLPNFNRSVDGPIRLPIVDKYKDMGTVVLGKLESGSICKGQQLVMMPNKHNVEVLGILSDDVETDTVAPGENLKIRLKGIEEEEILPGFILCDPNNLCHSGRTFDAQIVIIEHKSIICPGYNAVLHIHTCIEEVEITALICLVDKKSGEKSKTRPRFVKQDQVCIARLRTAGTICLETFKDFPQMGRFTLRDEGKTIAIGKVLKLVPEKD
Method: FIG. 1 represents the activity against CK1α, ikaros, and GPST1 in Jurkat cells, plated in 96 well plates. Cells were pretreated with compounds for 4 h and then lysed and protein levels measure via Western blots. The negative control wells were treated with DMSO. Cells were treated with the indicated compound at the indicated concentration. Compound activity is measured as a decrease in GSPT1 protein levels.
Western Blot Protocol: Cell lines were grown in RPMI 1640 supplemented with streptomycin, penicillin and 10% fetal bovine serum.
Jurkat cells were cultured at approximately 10^6 cells per mL, DMSO or the indicated compound was added to the cells and allowed to incubate for 6-8 h. Whole cell extract was prepared with RIPA buffer according to manufacturer's protocol (Pierce (Dallas, Tex.)). Briefly, ˜2×10^6 cells were washed once in PBS, the cell pellet was resuspended in RIPA buffer and allowed to incubate for 15 min on ice. Cell debris was removed by centrifugation and the cleared whole cell lysate was transferred to a new tube for further analysis.
For western blot analysis, whole cell extracts were separated on 4-12% SDS-polyacrylamide gels, transferred to nitrocellulose and probed with the indicated primary antibodies. Membranes were subsequently washed and probed with the appropriate horseradish peroxidase (HRP)-conjugated secondary antibody. Membranes were subsequently washed and probed with the appropriate IRDye secondary antibodies (LI-COR). The signal was detected using the Odyssey Imaging System (LI-COR).

| GSPT1 protein level (% of DMSO control) at 0.1 µM (GSPT1) [%] | GSPT1 protein level (% of DMSO control) at 1 µM (GSPT1) [%] | IC50 (Molm-13 cells; Homo sapiens, Molm-13 cells) [nM] | Structure (SMILES) | inhibition at 0.1 µM (IL-1β) [%] | inhibition at 0.1 µM (IL-6) [%] | viability at 1 µM (H1048 cells) [%] | viability at 10 µM (H1048 cells) [%] | inhibition at 0.1 µM (TNF-α) [%] | viability at 10 µM (Molm-13 cells; Homo sapiens, 72 h, 3 days) [%] | fold induction at 0.1 µM (IL-2) | inhibition at 1 µM (IL-1β) [%] | inhibition at 1 µM (IL-6) [%] | inhibition at 1 µM (TNF-α) [%] | viability at 0.5 µM (Molm-13 cells; Homo sapiens, 72 h, 3 days) [%] | fold induction at 1 µM (IL-2) | viability at 0.3 µM (Molm-13 cells; Homo sapiens, 72 h, MOLM-13, 0.3 μM, 3 days) [%] | viability at 0.6 µM (Molm-13 cells; Homo sapiens, 72 h, MOLM-13, 0.6 μM, 3 days) [%] | effect on cell viability (Molm-13 cells; Molm-13 cells, 1 μM (FIG. 5)) |
| --- | --- | --- | --- | --- | --- | --- | --- | --- | --- | --- | --- | --- | --- | --- | --- | --- | --- | --- |
| 126 | 160 | – | Cc1ccc(CNC(=O)NCc2cccc3c2CN([C@H]2CCCC(=O)NC2=O)C3=O)cc1Cl [Compound 20, (S)-1-(3-chloro-4-methylbenzyl)-3-((2-(2,7-dioxoazepan-3-yl)-1-oxoisoindolin-4-yl)methyl)urea] | 12 | 7 | 98.5 | 96.2 | 11 | 23 | 1.1 | – | – | – | – | – | – | – | – |
| 145 | 82.8 | – | O=C(Cc1cccc(CN2CCOCC2)c1)NCc1ccc2c(c1)CN([C@H]1CCCC(=O)NC1=O)C2=O [Compound 14, (S)—N-((2-(2,7-dioxoazepan-3-yl)-1-oxoisoindolin-5-yl)methyl)-2-(3-(morpholinomethyl)phenyl)acetamide] | 0 | 0 | 101 | 56.2 | 0 | 28 | 0.9 | – | – | – | – | – | – | – | – |
| 52.6 | 14.9 | – | COc1ccc(NC(=O)NCc2ccc3c(c2)CN([C@H]2CCCC(=O)NC2=O)C3=O)cc1Cl [Compound 8, (S)-1-(3-chloro-4-methoxyphenyl)-3-((2-(2,7-dioxoazepan-3-yl)-1-oxoisoindolin-5-yl)methyl)urea] | – | – | 17.4 | 4.4 | – | – | – | 78 | 95 | 84 | 48 | 0.9 | – | – | – |
| 83.3 | 49.3 | – | O=C(Cc1ccc(C(F)(F)F)c(Cl)c1)NCc1ccc2c(c1)CN([C@H]1CCCC(=O)NC1=O)C2=O [Compound 10, (S)-2-(3-chloro-4-(trifluoromethyl)phenyl)-N-((2-(2,7-dioxoazepan-3-yl)-1-oxoisoindolin-5-yl)methyl)acetamide] | – | – | 82.1 | 21.5 | – | 96 | – | 68 | 67 | 67 | – | 1.5 | – | – | – |
| 51.4 | 23.8 | – | Cc1ccc(NC(=O)NCc2ccc3c(c2)C(=O)N([C@H]2CCCC(=O)NC2=O)C3=O)cc1Cl [Compound 27, (S)-1-(3-chloro-4-methylphenyl)-3-((2-(2,7-dioxoazepan-3-yl)-1,3-dioxoisoindolin-5-yl)methyl)urea] | 9 | 0 | 101 | 28.2 | 19 | 89 | 1.1 | – | – | – | – | – | – | – | – |
| 126 | 134 | – | Cc1ccc(N(C)C(=O)NCc2ccc3c(c2)CN([C@H]2CCCC(=O)NC2=O)C3=O)cc1Cl [Compound 21, (S)-1-(3-chloro-4-methylphenyl)-3-((2-(2,7-dioxoazepan-3-yl)-1-oxoisoindolin-5-yl)methyl)-1-methylurea] | 27 | 18 | 95.5 | 45.3 | 20 | 25 | 0.9 | – | – | – | – | – | – | – | – |
| 28.6 | 3.63 | ~450 | Cc1ccc(NC(=O)NCc2ccc3c(c2)CN([C@H]2CCCC(=O)NC2=O)C3=O)cc1Cl [Compound 1] | 70 | 55 | 8.39 | 3.51 | 75 | – | 1.4 | – | – | – | – | – | 50 | – | – |
| 95.5 | 46.8 | ~1000 | O=C1CCCC(N2Cc3cc(CNC(=O)Nc4cccc(Cl)c4)ccc3C2=O)C(=O)N1 (stereo not drawn) [Compound 3] | 59 | 27 | 47.1 | 6.25 | 59 | – | 1.4 | – | – | – | – | – | – | 50 | reduced cell viability |
| 69.7 | 20.2 | – | Cc1ccc(CNC(=O)NCc2ccc3c(c2)CN([C@H]2CCCC(=O)NC2=O)C3=O)cc1Cl [Compound 18, (S)-1-(3-chloro-4-methylbenzyl)-3-((2-(2,7-dioxoazepan-3-yl)-1-oxoisoindolin-5-yl)methyl)urea] | 53 | 41 | 14.2 | 4.28 | 48 | – | 1.5 | – | – | – | 68 | – | – | – | – |
| 167 | 111 | – | O=C(Cc1ccc(Cl)c(CN2CCOCC2)c1)NCc1ccc2c(c1)CN([C@H]1CCCC(=O)NC1=O)C2=O [Compound 15, (S)-2-(4-chloro-3-(morpholinomethyl)phenyl)-N-((2-(2,7-dioxoazepan-3-yl)-1-oxoisoindolin-5-yl)methyl)acetamide] | 0 | 0 | 93.3 | 35 | 0 | 84 | 1 | – | – | – | – | – | – | – | – |
